This assay has as its system MCH receptors. The experiment in a line: MCH receptor activity class (method not given).
Setting [1] is: MCH receptor activity class 1-3 (percent of control at 10^-7 M or IC50).
The mark [2] stands for this setting: class by percent of control at 10^-7 M or IC50.
The mark [3] stands for this setting: activity class per percent of control at 10^-7 M or IC50.
Where [4] appears, read: class by percent of control at 10^−7 M or IC50.
Where [5] appears, read: class 1-3 by percent of control at 10^-7 M or IC50.
Setting [6] is: MCH receptor, class by percent of control at 10^-7 M or IC50.

Regarding `COc1ccc(C)cc1NC(=O)NC[C@H]1CC[C@@H](Nc2nccc(N(C)C)n2)CC1` [compound 2446], the class under setting [1] is recorded as 2 (Class 2: The value of percent of control at 10^−7 M was from 40% to 60% or the value of IC′50 was from 50 nM to 200 nM.). For `CN(C)c1ccnc(N[C@H]2CC[C@@H](NC(=O)C(CC(=O)c3ccccc3)c3c[nH]c4ccccc34)CC2)n1` (relative stereo) [compound 855, N-(cis-4-{[4-(dimethylamino)pyrimidin-2-yl]amino}cyclohexyl)-2-(1H-indol-3-yl)-4-oxo-4-phenylbutanamide], the class under setting [2] is 1 (Class 1: The value of percent of control at 10^−7 M was less than 40% or the value of IC50 was less than 50 nM.). Take `CN(C)c1cc(N[C@H]2CC[C@@H](NC(=O)c3ccc(-c4ccc(Cl)cc4[N+](=O)[O-])o3)CC2)nc2ccccc12` [compound 676, 5-(4-chloro-2-nitrophenyl)-N-(cis-4-{[4-(dimethylamino)quinolin-2-yl]amino}cyclohexyl)-2-furamide]: the class under setting [2] was 2 (Class 2: The value of percent of control at 10^−7 M was from 40% to 60% or the value of IC′50 was from 50 nM to 200 nM.).

On to `Cc1cc(C)c(NC(=S)N[C@H]2CC[C@@H](Nc3cc(N(C)C)c4ccccc4n3)CC2)cc1C` [compound 2289], for which the class under setting [1] is reported as 3 (Class 3 The value of percent of control at 10^−7 M was more than 60% or the value of IC50 was more than 200 nM.).

As to `CN(C)c1ccnc(N[C@H]2CC[C@@H](CNC(=O)Nc3c(Cl)cc(Cl)cc3Cl)CC2)n1` [compound 2415, N-[(cis-4-{[4-(dimethylamino)pyrimidin-2-yl]amino}cyclohexyl)methyl]-N′-(2,4,6-trichlorophenyl)urea], the class under setting [1] is given as 1 (Class 1: The value of percent of control at 10^−7 M was less than 40% or the value of IC50 was less than 50 nM.). As to `CN(C)c1nc(N[C@H]2CC[C@@H](CNC(=O)C(Cc3ccccc3)c3ccccc3)CC2)nc2c1CCCC2` (relative stereo) [compound 1066], the class under setting [3] is on record as 3 (Class 3 The value of percent of control at 10^−7 M was more than 60% or the value of IC50 was more than 200 nM.).

Regarding `Cc1cc(N(C)C)nc(N[C@H]2CC[C@@H](CNC(=O)c3cccc(C(F)(F)F)c3)CC2)n1` [compound 2757], the class under setting [4] is reported as 3 (Class 3 The value of percent of control at 10^−7 M was more than 60% or the value of IC50 was more than 200 nM.). As to `Cc1ccccc1CNC[C@H]1CC[C@@H](Nc2nccc(N(C)C)n2)CC1` [compound 1306], under setting [2], the class was 3 (Class 3 The value of percent of control at 10^−7 M was more than 60% or the value of IC50 was more than 200 nM.). Still for that read-out and setting: to `CN(C)c1ccnc(N[C@H]2CC[C@@H](CNC(=O)c3cc(F)cc(C(F)(F)F)c3)CC2)n1` [compound 383] belongs 3 (Class 3 The value of percent of control at 10^−7 M was more than 60% or the value of IC50 was more than 200 nM.). On to `CN(C)c1ccnc(N[C@H]2CC[C@@H](NC(=O)Cc3c(Cl)ccc(Cl)c3Cl)CC2)n1` [compound 813], for which the class under setting [2] is reported as 3 (Class 3 The value of percent of control at 10^−7 M was more than 60% or the value of IC50 was more than 200 nM.). The same measure, in the same setting: to `CN(C)c1ccnc(N[C@H]2CC[C@@H](NCc3c[nH]c4ccc(Br)cc34)CC2)n1` [compound 1213] belongs 2 (Class 2: The value of percent of control at 10^−7 M was from 40% to 60% or the value of IC′50 was from 50 nM to 200 nM.).

In the case of `CN(C)c1nc(N[C@H]2CC[C@@H](NC(=O)c3cccc(OC(F)(F)F)c3)CC2)nc2c1CCCC2` [compound 490], the class under setting [5] was 2 (Class 2: The value of percent of control at 10^−7 M was from 40% to 60% or the value of IC′50 was from 50 nM to 200 nM.).

On to `CN(C)c1nc(N[C@H]2CC[C@@H](NC(=S)Nc3ccc(-c4cnco4)cc3)CC2)nc2c1CCCC2` [compound 2086], for which, under setting [2], the class was 3 (Class 3 The value of percent of control at 10^−7 M was more than 60% or the value of IC50 was more than 200 nM.).

For the compound `CCCCc1ccc(NC(=S)N[C@H]2CC[C@@H](Nc3cc(N(C)C)c4ccccc4n3)CC2)c(C)c1` [compound 2313], the class under setting [1] is given as 3 (Class 3 The value of percent of control at 10^−7 M was more than 60% or the value of IC50 was more than 200 nM.). For `CN(C)c1nc(N[C@H]2CC[C@@H](NC(=S)Nc3ccc(Oc4ccc([N+](=O)[O-])cc4)cc3)CC2)nc2c1CCCC2` [compound 2049], the class under setting [6] is on record as 3 (Class 3 The value of percent of control at 10^−7 M was more than 60% or the value of IC50 was more than 200 nM.). For `CN(C)c1nc(N[C@H]2CC[C@@H](NC(=O)c3cc(Cl)cc(Cl)c3NC(=O)C#Cc3ccccc3)CC2)nc2c1CCCC2` [compound 994], under setting [3], the class is recorded as 1 (Class 1: The value of percent of control at 10^−7 M was less than 40% or the value of IC50 was less than 50 nM.). With `Cc1cc(N(C)C)nc(N[C@H]2CC[C@@H](NC(=O)Cc3cc(C(F)(F)F)cc(C(F)(F)F)c3)CC2)n1` [compound 2950, 2-[3,5-bis(trifluoromethyl)phenyl]-N-(cis-4-{[4-(dimethylamino)-6-methylpyrimidin-2-yl]amino}cyclohexyl)acetamide], the class under setting [4] is 2 (Class 2: The value of percent of control at 10^−7 M was from 40% to 60% or the value of IC′50 was from 50 nM to 200 nM.).

Consider `CN(C)c1cc(N[C@H]2CC[C@@H](CNC(=O)c3cccc4c3-c3ccccc3C4=O)CC2)nc2ccccc12` [compound 226], for which the class under setting [2] was 3 (Class 3 The value of percent of control at 10^−7 M was more than 60% or the value of IC50 was more than 200 nM.). With `CN(C)c1ccnc(N[C@H]2CC[C@@H](NC(=O)Cc3sc(-c4ccccc4)nc3-c3ccc(Cl)cc3)CC2)n1` [compound 900, 2-[4-(4-chlorophenyl)-2-phenyl-1,3-thiazol-5-yl]-N-(cis-4-{[4-(dimethylamino)pyrimidin-2-yl]amino}cyclohexyl)acetamide], under setting [2], the class is recorded as 1 (Class 1: The value of percent of control at 10^−7 M was less than 40% or the value of IC50 was less than 50 nM.). On to `COc1ccccc1Oc1ncccc1C(=O)NC[C@@H]1CC[C@H](Nc2ncc(C)c(N(C)C)n2)C1` [compound 3013], for which, under setting [4], the class is given as 1 (Class 1: The value of percent of control at 10^−7 M was less than 40% or the value of IC50 was less than 50 nM.). Consider `Cc1noc(-c2ccccc2)c1NC(=O)N[C@H]1CC[C@@H](Nc2cc(N(C)C)c3ccccc3n2)CC1` [compound 2121, N-(cis-4-{[4-(dimethylamino)quinolin-2-yl]amino}cyclohexyl)-N′-(3-methyl-5-phenylisoxazol-4-yl)urea], for which the class under setting [2] was 2 (Class 2: The value of percent of control at 10^−7 M was from 40% to 60% or the value of IC′50 was from 50 nM to 200 nM.). The same measure, in the same setting: to `CN(C)c1cc(N[C@H]2CC[C@@H](CNC(=O)c3ccccc3I)CC2)nc2ccccc12` [compound 222] belongs 3 (Class 3 The value of percent of control at 10^−7 M was more than 60% or the value of IC50 was more than 200 nM.). Take `CCSc1ncccc1C(=O)NC[C@H]1CC[C@@H](Nc2nc3c(c(N(C)C)n2)CCCC3)CC1` [compound 598]: the class under setting [5] is recorded as 1 (Class 1: The value of percent of control at 10^−7 M was less than 40% or the value of IC50 was less than 50 nM.). In the case of `COc1cc(C(=O)N[C@H]2CC[C@@H](Nc3nccc(N(C)C)n3)CC2)ccc1[N+](=O)[O-]` [compound 829, N-(cis-4-{[4-(dimethylamino)pyrimidin-2-yl]amino}cyclohexyl)-3-methoxy-4-nitrobenzamide], under setting [2], the class is recorded as 1 (Class 1: The value of percent of control at 10^−7 M was less than 40% or the value of IC50 was less than 50 nM.). Regarding `CN(C)c1nc(N[C@H]2CC[C@@H](NC(=O)c3cccnc3Sc3ccccc3)CC2)nc2c1CCCC2` [compound 572], under setting [5], the class is 3 (Class 3 The value of percent of control at 10^−7 M was more than 60% or the value of IC50 was more than 200 nM.). For the compound `Cc1cnc(N[C@H]2CC[C@@H](NCc3cccc(Br)c3)CC2)nc1N(C)C` [compound 2999], the class under setting [4] was 3 (Class 3 The value of percent of control at 10^−7 M was more than 60% or the value of IC50 was more than 200 nM.).

In the case of `CN(C)c1nc(N[C@H]2CC[C@@H](NC(=O)c3cnc4ccccc4n3)CC2)nc2c1CCCC2` [compound 550], the class under setting [5] is 1 (Class 1: The value of percent of control at 10^−7 M was less than 40% or the value of IC50 was less than 50 nM.). Consider `COc1cc(C)c(CNC[C@H]2CC[C@@H](Nc3cc(N(C)C)c4ccccc4n3)CC2)cc1C` [compound 1195], for which, under setting [2], the class is listed as 3 (Class 3 The value of percent of control at 10^−7 M was more than 60% or the value of IC50 was more than 200 nM.). Take `COc1ccc(NC(=S)N[C@H]2CC[C@@H](Nc3nccc(N(C)C)n3)CC2)c(C)c1` [compound 2341]: under setting [1], the class was 3 (Class 3 The value of percent of control at 10^−7 M was more than 60% or the value of IC50 was more than 200 nM.). As for `CN(C)c1nc(N[C@H]2CC[C@@H](NC(=S)Nc3cccc4nsnc34)CC2)nc2c1CCCC2` [compound 2083], under setting [6], the class is 3 (Class 3 The value of percent of control at 10^−7 M was more than 60% or the value of IC50 was more than 200 nM.).

On to `CN(C)c1cc(N[C@H]2CC[C@@H](CNC(=O)c3ccc4c(c3)OCO4)CC2)nc2ccccc12` [compound 174], for which the class under setting [6] is recorded as 3 (Class 3 The value of percent of control at 10^−7 M was more than 60% or the value of IC50 was more than 200 nM.).

In the case of `COC(=O)c1cccc(NC(=O)N[C@H]2CC[C@@H](Nc3nc4c(c(N(C)C)n3)CCCC4)CC2)c1` [compound 1870], the class under setting [2] is recorded as 3 (Class 3 The value of percent of control at 10^−7 M was more than 60% or the value of IC50 was more than 200 nM.). Still for that read-out and setting: the value for `COC(=O)[C@H](Cc1ccccc1)NC(=O)N[C@H]1CC[C@@H](Nc2cc(N(C)C)c3ccccc3n2)CC1` (relative stereo) [compound 2135] was 2 (Class 2: The value of percent of control at 10^−7 M was from 40% to 60% or the value of IC′50 was from 50 nM to 200 nM.). Take `Cc1cc(C(=O)NC[C@H]2CC[C@@H](Nc3ncc(C)c(N(C)C)n3)CC2)ccc1F` [compound 2696]: the class under setting [4] is on record as 2 (Class 2: The value of percent of control at 10^−7 M was from 40% to 60% or the value of IC′50 was from 50 nM to 200 nM.).

(Values after patent US20050197350A1, “Novel quinoline, tetrahydroquinazoline, and pyrimidine derivatives and methods of treatment related to the use thereof” (TAISHO PHARMACEUTICAL CO., LTD., priority 2003, published 2005).)
